From patent US11795481B2, “Processes for producing a fermentation product” (Novozymes A/S, priority 2017, dated 2023)

Experiments:
multi-strain LAB culture = assay: SSF of control mash with 1% w/w infected mash, AA13 candidates, HPLC of organic acids and ethanol (Example 3); assay type: cell-based; conditions: SSF 32° C. up to 24 hours, 20% DS; for % delta Ethanol / % delta Lactic Acid: vs No Treatment
Protocol: A control mash was prepared in-house with an industry relevant blend of AA369 and Protease Pfu using a Lab-O-Mat incubator for 2 hours at 85° C. and 36% DS to simulate typical industry conditions. The mash was then frozen prior to use in SSF. An infected mash was prepared by infecting the control mash with a multi-strain LAB culture grown in MRS. The bacteria in control mash was incubated overnight, and then frozen with 20% glycerol. For this experiment, 1% weight/weight of the infected mash was mixed into the control mash. This mimics an infection event at a large-scale ethanol facility. For SSF, all mash was prepared with 1000 ppm of urea to aid with yeast fermentation. All treatments were dosed with a baseline commercial glucoamylase GSA, while AA13 candidates were dosed at either 10 ug/g-DS or 50 ug/g-DS. SSF was performed at 5 g scale with 10 uL/g rehydrated Ethanol Red yeast at 32° C. for up to 24 hours at 20% DS. At the end of fermentation, samples were deactivated with 50 uL of 40% sulfuric acid and then centrifuged. The supernatant was filtered through a 0.2 μm filter and then measured for soluble carbohydrates and organic acids using an ion-exchange H-column on HPLC.

[1] = pH 4.5; cited from earlier work
[2] = relative to the parent Penicillium oxalicum glucoamylase; cited from earlier work

| Molecule | average Ethanol (multi-strain LAB culture; AA13 dose 10 ug/g-DS) | average Lactic Acid (multi-strain LAB culture; AA13 dose 10 ug/g-DS) | % delta Ethanol (multi-strain LAB culture; AA13 dose 10 ug/g-DS) | % delta Lactic Acid (multi-strain LAB culture; AA13 dose 10 ug/g-DS) | average Ethanol (multi-strain LAB culture; AA13 dose 50 ug/g-DS) | average Lactic Acid (multi-strain LAB culture; AA13 dose 50 ug/g-DS) | % delta Ethanol (multi-strain LAB culture; AA13 dose 50 ug/g-DS) | % delta Lactic Acid (multi-strain LAB culture; AA13 dose 50 ug/g-DS) | average Ethanol (multi-strain LAB culture; Penicillin dose 25 ppm) | average Lactic Acid (multi-strain LAB culture; Penicillin dose 25 ppm) | % delta Ethanol (multi-strain LAB culture; Penicillin dose 25 ppm) | % delta Lactic Acid (multi-strain LAB culture; Penicillin dose 25 ppm) | thermostability (Relative Activity 80° C./70° C.) [1] | thermostability (Relative Activity 90° C./70° C.) [1] | sensitivity to protease degradation [2] |
| --- | --- | --- | --- | --- | --- | --- | --- | --- | --- | --- | --- | --- | --- | --- | --- |
| Acrostalagmus luteoalbus: Acrostalagmus luteoalbus AA13 polypeptide of SEQ ID NO: 129 | 78.9 g/L | 3.0 g/L | 1.7% | −10.9% | 80.0 g/L | 2.9 g/L | 3.0% | −13.2% | – | – | – | – | – | – | – |
| Aspergillus insuetus: Aspergillus insuetus AA13 polypeptide of SEQ ID NO: 130 | 76.7 g/L | 3.4 g/L | −1.2% | 1.7% | 77.2 g/L | 3.4 g/L | −0.6% | 2.1% | – | – | – | – | – | – | – |
| Cladosporium gossypiicola: Cladosporium gossypiicola AA13 polypeptide of SEQ ID NO: 131 | 77.5 g/L | 3.3 g/L | −0.2% | −1.8% | 78.5 g/L | 3.2 g/L | 1.1% | −4.6% | – | – | – | – | – | – | – |
| Penicillin [reference compound] | – | – | – | – | – | – | – | – | 80.1 g/L | 1.2 g/L | 3.1% | −62.4% | – | – | – |
| Penicillium antarcticum: Penicillium antarcticum AA13 polypeptide of SEQ ID NO: 135 | 76.4 g/L | 3.4 g/L | −1.6% | 2.2% | 76.2 g/L | 3.4 g/L | −1.8% | 3.0% | – | – | – | – | – | – | – |
| Penicillium concentricum: Penicillium concentricum AA13 polypeptide of SEQ ID NO: 136 | 78.1 g/L | 3.3 g/L | 0.6% | −0.6% | 78.2 g/L | 3.2 g/L | 0.7% | −3.2% | – | – | – | – | – | – | – |
| Penicillium hoeksii: Penicillium hoeksii AA13 polypeptide of SEQ ID NO: 137 | 78.1 g/L | 3.2 g/L | 0.6% | −2.8% | 79.1 g/L | 3.2 g/L | 1.9% | −4.8% | – | – | – | – | – | – | – |
| Penicillium paxilli: Penicillium paxiffi AA13 polypeptide of SEQ ID NO: 138 | 77.8 g/L | 3.2 g/L | 0.2% | −4.9% | 78.1 g/L | 3.1 g/L | 0.5% | −5.7% | – | – | – | – | – | – | – |
| Penicillium roseopurpureum: Penicillium roseopurpureum AA13 polypeptide of SEQ ID NO: 139 | 78.0 g/L | 3.3 g/L | 0.5% | −1.3% | 78.1 g/L | 3.3 g/L | 0.6% | −1.8% | – | – | – | – | – | – | – |
| Penicillium samsonianum: Penicillium samsonianum AA13 polypeptide of SEQ ID NO: 140 | 77.1 g/L | 3.4 g/L | −0.6% | 2.2% | 77.4 g/L | 3.4 g/L | −0.4% | 2.0% | – | – | – | – | – | – | – |
| Penicillium sclerotiorum: Penicillium sclerotiorum AA13 polypeptide of SEQ ID NO: 141 | 76.4 g/L | 3.5 g/L | −1.6% | 6.9% | 78.1 g/L | 3.3 g/L | 0.6% | −0.9% | – | – | – | – | – | – | – |
| Penicillium steckii: Penicillium steckii AA13 polypeptide of SEQ ID NO: 145 | 76.6 g/L | 3.5 g/L | −1.4% | 4.5% | 77.3 g/L | 3.3 g/L | −0.4% | −1.0% | – | – | – | – | – | – | – |
| Penicillium viticola: Penicillium viticola AA13 polypeptide of SEQ ID NO: 146 | 76.6 g/L | 3.4 g/L | −1.3% | 2.2% | 77.8 g/L | 3.4 g/L | 0.2% | 2.8% | – | – | – | – | – | – | – |
| Penicillium vulpinum: Penicillium vulpinum AA13 polypeptide of SEQ ID NO: 147 | 79.0 g/L | 3.2 g/L | 1.7% | −2.9% | 78.3 g/L | 3.5 g/L | 0.9% | 4.6% | – | – | – | – | – | – | – |
| Pfu S: commercial product Pyrococcus furiosus protease (Pfu S), SEQ ID NO: 111 (protein, listed as Pyrococcus furiosus) AELEGLDESAAQVMATYVWNLGYDGSGITIGIIDTGIDASHPDLQGKVIGWVDFVNGRSYPYDDHGHGTHVASIAAGTGAASNGKYKGMAPGAKLAGIKVLGADGSGSISTIIKGVEWAVDNKDKYGIKVINLSLGSSQSSDGTDALSQAVNAAWDAGLVVVVAAGNSGPNKYTIGSPAAASKVITVGAVDKYDVITSFSSRGPTADGRLKPEVVAPGNWIIAARASGTSMGQPINDYYTAAPGTSMATPHVAGIAALLLQAHPSWTPDKVKTALIETADIVKPDEIADIAYGAGRVNAYKAINYDNYAKLVFTGYVANKGSQTHQFVISGASFVTATLYWDNANSDLDLYLYDPNGNQVDYSYTAYYGFEKVGYYNPTDGTWTIKVVSYSGSANYQVDVVSDGSLSQPGSS | – | – | – | – | – | – | – | – | – | – | – | – | 110% | 103% | – |
| PE001: variant of the Penicillium oxalicum glucoamylase of SEQ ID NO: 106 having a K79V substitution (protein, listed as Penicillium oxalicum) RPDPKGGNLTPFIHKEGERSLQGILDNLGGRGKKTPGTAAGLFIASPNTENPNYYYTWTRDSALTAKCLIDLFEDSRAVFPIDRKYLETGIRDYKSSQAILQSVSNPSGTLKDGSGLGEPKFEIDLNPFSGAWGRPQRDGPALRATAMITYANYLISHGQKSDVSQVMWPIIANDLAYVGQYWNNTGFDLWEEVDGSSFFTIAVQHRALVEGSQLAKKLGKSCDACDSQPPQILCFLQSFWNGKYITSNINTQASRSGIDLDSVLGSIHTFDPEAACDDATFQPCSARALANHKVYVDSFRSIYKINAGLAEGSAANVGRYPEDVYQGGNPWYLATLGASELLYDALYQWDRLGKLEVSETSLSFFKDFDATVKIGSYSRNSKTYKKLTQSIKSYADGFIQLVQQYTPSNGSLAEQYDRNTAAPLSANDLTWSFASFLTATQRRDAVVPPSWGAKSANKVPTTCSASPVVGTYKAPTATFSSKTKCVPAKDIVPITFYLIENTYYGENVFMSGNITALGNWDAKKGFPLTANLYTQDQNLWFASVEFIPAGTPFEYKYYKVEPNGDITWEKGPNRVFVAPTGCPVQPHSNDVWQF | – | – | – | – | – | – | – | – | – | – | – | – | – | – | reduced sensitivity to protease degradation relative to the parent |
